For series [1] the following is noted: solvent mixtures comprising methanol and one or more of toluene or ethyl acetate, typically. As to the method:
The upper and lower concentration values are therefore dependent on the solubility characteristics of the material and the solvent mixture of choice. […] Therefore, for a crystallisation regime starting at 60° C. and ending at 0° C., a saturated or partially saturated solution in methanol and toluene, ethyl acetate admixtures, the concentration of BOC-protected 2R,3S—N-isobutyl-N-(2-hydroxy-3-amino-4-phenylbutyl)-p-nitrobenzene-sulfonylamide is in the range from 0.3 to 24% w/w.

For series [2] the following is noted: in propan-1-ol at 60° C. An excerpt: In addition to methanol, other lower aliphatic alcohols were investigated. The solubility of BOC-protected 2R,3S—N-isobutyl-N-(2-hydroxy-3-amino-4-phenylbutyl)-p-nitrobenzene-sulfonylamide in propan-1-ol, propan-2-ol or butan-1-ol is too low to offer an economically viable process. […] The solubility of BOC-protected 2R,3S—N-isobutyl-N-(2-hydroxy-3-amino-4-phenylbutyl)-p-nitrobenzene-sulfonylamide in ethanol is better than that in C3 and C4-alcohols, but is still lower than the solubility in methanol. […] Similarly, acetone and 2-pentanone yield small acicular crystals.

Regarding `CC(C)CN(C[C@@H](O)[C@H](Cc1ccccc1)NC(=O)OC(C)(C)C)S(=O)(=O)c1ccc([N+](=O)[O-])cc1` [BOC-protected 2R,3S—N-isobutyl-N-(2-hydroxy-3-amino-4-phenylbutyl)-p-nitrobenzene-sulfonylamide], in series [1] (60° C.), the maximum solubility achievable is 24 % w/w. In series [1] (end-point temperature of 0° C.), the lower solubility value is 0.3 % w/w. For the same molecule, the solubility entry in series [2] is “less than 3 % w/w”.
